Data as given in US12611442B2, “mRNA encoding engineered CFTR” (Translate Bio, Inc., priority 2019, dated 2026).

Columns and labels:
Format in all cases: cell-based
[1] = system: FRT cells; experiment: Time-course Ussing chamber assay (duration of activity, 22 and 44 hours); details: at 44 hours (measured at 22 and 44 hours); FIG. 14A, 14B
Description: In this example, duration of activity of various phosphomimetic CFTR mutants were tested in combination with the K14R mutation using a time-course Ussing chamber assay as described in Example 3.
Activity of various CFTR proteins listed in Table 12 were measured at 22 and 44 hours. Short-circuit current (Isc), the movement of ions as measured in the Ussing chamber from active transport, was plotted for each CFTR protein at 22 and 44 hours.

[2] = system: HEK293 cells; experiment: CFTR protein expression by protein gel / Western blot (C band); details: for C-band expression (quantification of Western blot): FIG. 11A, 11B; for expression in the C band (mature complex glycosylated CFTR): HEK293 lysates, FIG. 18A-18C
Description: The CFTR band is depicted by an arrow (FIG. 3A).
To examine the expression of CFTR mutants, expression of the wild-type CFTR, 15E, 13E, and E1371Q mutants was quantified as shown in FIG. 11A and FIG. 11B.
Studies were also performed to assess in vitro translation and tolerability of CFTR mutants. […] The “C band” refers to mature complex glycosylated form of CFTR.

[3] = system: FRT cells; experiment: Ussing chamber assay: short-circuit current (chloride ion transport) of cells transfected with WT or engineered CFTR mRNA; sequential forskolin, VX-770, CFTRinh-172
Description: Chloride ion transport was measured by an Ussing chamber. This assay provides an indication of chloride flux based on the principle that the epithelium pumps ions from one side to another and ions leak back through tight junctions situated between epithelial cells. The voltage difference between two sides of the epithelium is measured using two voltage electrodes placed near the tissue/epithelium. The voltage is cancelled out by injecting current, using two other electrodes placed away from the epithelium. The short circuit current is measured as net chloride ion transport.
Traces show short-circuit current measurements during sequential additions of forskolin, an activator of CFTR-mediated chloride secretion, and VX-770 (ivacaftor), a potentiator compound that directly increases phosphorylation-dependent CFTR channel opening on amphotericin B-permeabilized membranes. CFTR proteins A-D responded to forskolin activation resulting in increased chloride ion conductance. Forskolin activation was not observed for CFTR Protein E, the ATP hydrolysis deficient E1371Q mutant. Further addition of VX-770 increased conductance in CFTR Proteins B-D.
In this example, activation of various engineered CFTR protein mutants (proteins B-E, discussed above) were compared with the activation of wild type CFTR (protein A) using the Ussing assay as described in Example 3. In this example the engineered CFTR protein activity was tested at a low concentration of 0.35 μg (FIG. 4).
In this example, activities of various engineered phosphomimetic CFTR protein mutants (Table. 9) were compared with the activity of wild-type CFTR using the Ussing chamber assay as described in Example 3.

[4] = HEK293 cells, versus wild-type CFTR
[5] = 0.35 μg (low concentration), FRT cells, FIG. 4

Molecule: 13E: S422E, S660E, S670E, S686E, T690E, S700E, S712E, S753E, T787E, T788E, T790E, S795E, S813E (codon optimized: SEQ ID NO: 52)
- remaining activity (short-circuit current, Isc) [1]: highest remaining activity at 44 hours
- C-band expression (quantification of Western blot) [2, 4]: increased C-band expression
- increase in protein (C-band, quantification of Western blot) ([2]; HEK293 cells, versus wild-type CFTR, FIG. 11B): greater than 2 fold
- expression in the C band (mature complex glycosylated CFTR) [2]: increased expression in the C band
- CFTR activity, glutamate (E) versus aspartate (D) substitutions ([3]; 13 or 15 R-domain substitutions, FRT cells, FIG. 9A, 9B, 11E): greater CFTR activity
- effect of additional K14R substitution on chloride conductance of the named protein ([3]; FIG. 14C): no effect
- change in activity when K14R mutation is combined with the named phosphomimetic mutant ([3]; maximum activated current, FRT cells, FIG. 11C, 11D): no significant increase in the activity

Molecule: 15E/K14R: K14R plus the 15E substitutions (codon optimized: SEQ ID NO: 51)
- remaining activity (short-circuit current, Isc) [1]: highest remaining activity at 44 hours

Molecule: E1371Q/K14R: E1371Q plus K14R (codon optimized: SEQ ID NO: 49)
- remaining activity (short-circuit current, Isc) [1]: high remaining activity at 44 hours
- expression compared to wild-type CFTR and to E1371Q-only CFTR ([2]; FIG. 13B): increased expression
- expression in the C band (mature complex glycosylated CFTR) [2]: increased expression in the C band
- activity compared to wild-type CFTR and to E1371Q-only CFTR ([3]; FRT cells, FIG. 13A, 13B): increased activity

B1: CFTR Protein E: E1371Q, ATP hydrolysis deficient (SEQ ID NO: 44, 48) (nucleic acid)
DNA: GTGCAGCCCCTGCTGCTCGGCAGAATCATCGCCTCATACGATCCAGACAACAAGGAAGAAAGAAGCATCGCCATCTACCTGGGCATTGGCCTCTGCCTCCTGTTTATTGTGCGGACTCTGCTGCTGCACCCAGCAATTTTCGGGTTGCATCATATTGGCATGCAGATGCGCATTGCTATGTTTTCCCTCATCTACAAAAAGACACTGAAACTCAGCTCCCGGGTGCTGGACAAGATCTCCATCGGCCAACTGGTGTCTCTCCTGAGCAATAACTTGAATAAGTTCGACGAAGGGCTGGCCCTGGCACACTTCGTGTGGATTGCCCCCCTGCAGGTGGCCCTGCTGATGGGACTGATTTGGGAACTGCTGCAGGCTAGCGCTTTCTGCGGCCTGGGGTTCCTGATCGTGCTGGCACTGTTTCAGGCAGGCCTGGGCCGTATGATGATGAAGTACAGAGACCAGAGGGCCGGGAAGATCTCCGAACGGCTCGTTATTACCTCTGAGATGATCGAGAACATTCAGTCTGTGAAAGCCTACTGCTGGGAGGAGGCTATGGAGAAGATGATCGAGAATCTGAGACAGACCGAGCTGAAGCTGACCAGAAAGGCCGCCTACGTGAGGTACTTCAACAGCAGTGCCTTCTTCTTCTCTGGCTTCTTCGTTGTGTTTCTGAGCGTGCTGCCATACGCTCTCATCAAAGGCATCATCCTGCGGAAGATCTTCACCACCATCAGCTTTTGCATCGTGCTTAGAATGGCCGTGACCCGGCAGTTCCCATGGGCCGTGCAAACTTGGTATGATTCCCTGGGCGCCATCAACAAAATCCAGGATTTCCTGCAGAAGCAGGAATACAAGACACTCGAATATAATCTCACAACTACTGAGGTGGTTATGGAGAACGTGACTGCCTTCTGGGAGGAGGGGTTCGGAGAGCTTTTTGAGAAGGCAAAACAGAATAACAACAACCGCAAAACCAGCAACGGCGACGACAGCCTGTTCTTCTCCAATTTTTCTCTCCTGGGAACACCCGTCCTCAAAGACATCAACTTTAAGATCGAGAGGGGACAGCTGCTCGCAGTCGCCGGATCCACAGGCGCCGGCAAGACCTCTCTGCTGATGGTTATCATGGGCGAACTGGAGCCATCCGAGGGCAAGATTAAGCACAGTGGAAGAATCTCCTTTTGTAGCCAGTTCAGTTGGATTATGCCCGGCACTATTAAGGAGAATATCATTTTTGGGGTGAGCTATGATGAGTATCGGTATCGGAGCGTTATCAAAGCCTGTCAGCTGGAGGAGGATATCAGCAAATTCGCAGAGAAGGATAATATCGTGCTGGGGGAGGGGGGAATCACCCTGAGCGGAGGCCAGAGAGCCAGAATCTCACTGGCCCGGGCCGTCTACAAGGACGCCGACCTTTACCTTCTGGACAGTCCCTTTGGATATCTGGATGTGCTGACTGAAAAGGAGATCTTCGAGTCTTGTGTGTGCAAG
- C-band expression (quantification of Western blot) [2, 4]: increased C-band expression
- forskolin activation ([3]; 0.35 μg (low concentration), FIG. 4): forskolin activation at a lower dose in comparison to other constructs tested
- conductance prior to forskolin addition [3, 5]: significant pre-forskolin conductance
- overall activity compared to wild-type CFTR [3, 5]: overall increased activity
- response to forskolin activation (chloride ion conductance, short-circuit current) ([3]; 0.5 μg CFTR (high concentration), amphotericin B-permeabilized membranes, FIG. 3B): not observed
- forskolin activation and increased activity by addition of VX-770 ([3]; FIG. 12A, 12B): minimal response to VX-770
- activity / conductance (short circuit current) compared to wild-type CFTR ([3]; FRT cells, FIG. 12A, 12B): overall higher conductance than the wild-type CFTR
- activity pattern across doses ([3]; doses 0.05-0.35 μg/well, FIG. 5): consistent activity pattern across treatments
- effect of K1218R mutation on activity of the named CFTR protein ([3]; short-circuit conductivity, FIG. 15C): decreases activity
